Data published in BindingDB's records for doi:10.1016/j.bmcl.2014.06.082 (Friedrich Alexander University, 2014).

Target: T1, G protein-coupled receptor (Human cytomegalovirus, UniProt Q9IP65)
T1 sequence (Q9IP65 whole entry): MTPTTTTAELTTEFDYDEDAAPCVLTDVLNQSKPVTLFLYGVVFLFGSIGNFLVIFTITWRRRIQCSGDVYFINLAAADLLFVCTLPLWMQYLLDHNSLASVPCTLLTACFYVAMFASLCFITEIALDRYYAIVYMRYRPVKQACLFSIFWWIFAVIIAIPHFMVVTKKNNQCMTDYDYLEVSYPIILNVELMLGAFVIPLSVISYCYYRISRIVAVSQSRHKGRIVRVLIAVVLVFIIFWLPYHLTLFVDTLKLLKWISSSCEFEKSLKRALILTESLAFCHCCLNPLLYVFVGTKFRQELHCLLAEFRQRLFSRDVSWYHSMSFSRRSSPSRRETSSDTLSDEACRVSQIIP
Experiment: Allosteric modulatory activity at FLAG-tagged human cytomegalovirus US28 receptor delta300 mutant expressed in HEK293T cells by PathDetectElk1 assay

Compound | EC50 [µM]
N#CC(CCCN1CCC(O)(c2ccc(Cl)cc2)CC1)(c1ccccc1)c1ccccc1 [5-[4-(4-Chloro-phenyl)-4-hydroxy-piperidin-1-yl]-2,2-diphenyl-pentanenitrile] | < 10
CCCCCCCCCC(=O)N(CCN(C)C)CC1(C)Cc2ccccc2C(=O)N1 (configuration not stated) | < 10
